# Assay results published in patent publication US20140004079A1, “IN VIVO DENDRITIC CELL T[…]” (Agency for Science, Technology and Research, priority 2012, published 2014).
# Entries after “also recorded” stand apart in the source; their conditions may differ.
# B1: IL-32: cytokine, 100 ng/ml IL-32 for 6 d (protein, UniProt P24001 31-234, looked up)
# Interleukin-32: AWVSACDTEDTVGHLGPWRDKDPALWCQLCLSSQHQAIERFYDKMQNAESGRGQVMSSLAELEDDFKEGYLETVAAYYEEQHPELTPLLEKERDGLRCRGNRSPVPDVEDPATEEPGESFCDKVMRWFQAMLQRLQTWWHGVLAWVKEKVVALVHAVQALWKQFQSFCCSLSELFMSSFQSYGAPRGDKEELTPQKCSEPQSSK
# Tests used:
# Format in all cases: cell-based, human
# [1] = test system: sorted APC populations from chronic HBV patients; test: Ex vivo antigen presentation assay: sorted APCs activated overnight, co-cultured with HBsAg-specific TCR redirected T cells, IFN-γ Elispot; conditions: for cross-presentation of circulating HBsAg (T cell activation): mDC, CD14 MN, CD16 MN or B cells of chronic HBV patients, short-term activation, HBsAg-specific TCR transduced T cells
# Description: Sorted APC populations; CD11c DC, CD141 DC, CD123 pDC, CD14 MN, CD16 MN and CD20 B cells were cultured overnight in media alone or under activating conditions +/−[…] recombinant HBsAg (Kindly provided by DynaVax). Cells were activated with 10 μg/ml polyI:C (TLR-3), 5 μM CpG ODN2216 (TLR-9), 1 μg/ml LPS (TLR-4), 5 μg/ml Imiquimod (TLR-7), 1 μg/ml ssRNA40 (TLR-8) (InvivoGen), 1000 U/ml IFN-α or 1000 U/ml IFN-γ (R&D systems). Following overnight incubation, APC populations were thoroughly washed and transferred to anti-IFN-γ coated Elispot plates and co-cultured with CD8 s183-TCR or s171-TCR redirected T cells at 5:1 E:T ratio (normally 5,000 APCs/well but as low as 1000 CD141 DC/well) for 24 h. APCs pulsed with 5 μg/ml HBs183-91(FLLTRILTI), HBs171-80 (FLGPLLVLQA) or HBc18-27 ([…]) peptide served as positive control for T cell activation. IFN-γ Elispot was performed as described previously in Tan et al 2008, using 5 μg/ml of 1-DIK for capture and 0.5 μg/ml 7B6-1-Biotin plus Streptavidin-ALP for detection (Mabtec) (Tan, A. T, Loggi, E., Boni, C., Chia, A. Gehring, A. J., Sastry, K. S., Goh, V., Fisicaro, P., Andreone, P., Brander, C., et al. 2008. Host ethnicity and virus genotype shape the hepatitis B virus-specific T-cell repertoire. J. Virol 82: 10986-10997). Elispot plates were developed and analyzed using CTL Immunospot analyzer. Cutoff values for positive responses were set according to cumulative data from healthy donors and HLA mismatched chronic HBV responses (data not shown). Wells were considered positive if responses were above 20 spot forming units/50,000 T cells.
# APC populations were sorted from 7 HLA-A2+ chronic HBV patients or healthy donors to greater than 98% purity. TCR transduced T cells were then cultured at 5:1 effector:target ratio with each APC population (typically 5,000 APC/well for Elispot and 10,000 APC/well for intracellular cytokine staining) and T cell activation was monitored using IFN-γ intracellular cytokine staining or IFN-γ Elispot. For intracellular cytokine staining, cells were co-cultured overnight in V-bottom 96 well plates in 2 μg/ml brefeldin A. Cells were labeled with viability dye, stained with CD8-Horizon V500 (BD Biosciences) and fixed in cytofix/cytoperm (BD Biosciences). Cells were then stained with IFN-γ-Horizon V450 (BD Biosciences) to monitor T cell activation. As positive control, CD14 MN were pulsed with 5 μg/ml HBs183-91 or HBc18-27 peptide for 1 h and washed. IFN-γ Elispot was performed as described previously using 5 μg/ml of 1-DK1 for capture and 0.5 μg/ml 7B6-1-Biotin plus Streptavidin-ALP for detection (Mabtec). Wells were considered positive if responses were above 20 spot forming units/25,000 T cells. An HLA-A2+ healthy donor was included in each experiment to determine the background for each experiment. HLA-A2− donors were also tested to confirm specificity and restriction of the transduced T cells (data not shown).
# [2] = test system: CD14 MN from chronic HBV patients; test: Cross-presentation of in vivo captured HBsAg by monocyte-derived DC from chronic HBV patients, IFN-γ elispot; conditions: moDC activated overnight, s183-TCR and s171-TCR CD8 T cells
# Description: (§1) CD14+ MN were isolated from healthy donors and chronic HBV patients by FACs sorting or positive selection using CD14 micobeads (greater than 90% purity; Miltenyi Biothech). Purified monocytes were then cultured in RPMI 1640 supplemented with 10% heat-inactivated FBS, 20 mM HEPES, 0.5 mM sodium pyruvate. 100 U/ml penicillin, 100 μg/ml streptomycin, MeM amino acids, Glutamax, MeM nonessential amino acids, 55 μM 2-mercaptoethanol (Invitrogen). GM-CSF+IL-4 moDC were made by culturing CD14 MN in 50 ng/ml (1500 U/ml) IL-4 and 50 ng/ml (750 U/ml) GM-CSF (R&D systems) for 6 d. GM-CSF+IL-15 (R&D Systems) moDC were made by culturing CD14 MN in 100 ng/ml (1500 U/ml) GM-CSF+200 ng/ml IL-15. Half of the media was removed after 3 d and replaced with complete RPMI containing cytokines. After 6 d of incubation, moDC were stained with CD14-PerCp (Miltenyi Biotech), HLA-DR alexa700 (eBioscience), CD80-FITC (BD Bioscience) and CD86-APC (Biolegend) to confirm differentiation.
# (§2) Six day moDC were cultured overnight in media alone or activated with 10 μg/ml polyI:C or 0.1 ug/ml LPS (Invivogen)+50 ng/ml soluble HEK-derived CD40L (R&D Systems). Following overnight incubation, moDC were washed three times with HBSS and co-cultured at 2:1 effector:target ratio (10,000 T cells:5000 moDC) with CD8 HBs183-91T or HBs171-80-specific TCR redirected T cells for IFN-γ elispot. […]
# healthy donor CD14 MN = test: Cross-presentation by healthy donor CD14 MN loaded with HBV antigen at day zero and differentiated to moDC, IFN-γ elispot; conditions: differentiation alone, antigen captured on day zero
# Description: as §1, §2
molecule,measurement,setting,value
"IFN-γ: cytokine, 1000 U/ml for APC activation",cross-presentation of circulating HBsAg (T cell activation),[1],T cell activation was not observed
"Polyinosinic-polycytidylic acid [polyI:C, reference compound]",cross-presentation of exogenously loaded recombinant HBsAg by CD141 DC,[1]; CD141 DC loaded with rHBsAg and stimulated,efficiently cross-presented recombinant HBsAg
same,activation of CD8 T cells by activated CD141 DC directly ex vivo,"[1]; CD141 DC of chronic HBV patients, in vivo captured HBsAg",neither non-activated nor polyI:C activated CD141 DC from chronic HBV patients stimulated CDS T cells; also recorded: neither non-activated nor polyI:C activated CD141 DC from chronic HBV patients activated CD8 T cells
same,effect of moDC activation on T cell response,[2],increase the T cell response
granulocyte-macrophage colony-stimulating factor [GM-CSF],cross-presentation of HBV antigen to virus-specific CD8 T cells after differentiation,healthy donor CD14 MN; 3 d,resulted in cross-presentation of HBV antigen
interferon-α [IFN-α],cross-presentation of circulating HBsAg (T cell activation),[1],T cell activation was not observed
same,activation of HBsAg-specific T cells by activated pDC ex vivo,"[1]; pDC of chronic HBV patients, in vivo captured HBsAg",Neither resting pDC nor pDC activated with a panel of TLR ligands and IFN-α activated HBsAg-specific T cells; also recorded: none of these conditions resulted in HBsAg-specific T cell activation
B1,cross-presentation of HBV antigen to virus-specific CD8 T cells after differentiation,healthy donor CD14 MN; 6 d,resulted in cross-presentation of HBV antigen
